Source: ChEMBL document CHEMBL4765430, “Endeavors towards transformation of M. tuberculosis thymidylate kinase (MtbTMPK) inhibitors into potential antimycobacterial agents” (Eur J Med Chem, 2020)
pIC50: −log10 of the molar value. Values after ≈ are worked out from the molar mass of the structure shown.

Columns and labels:
[1] = Inhibition of wild-type Mycobacterium tuberculosis thymidylate kinase expressed in Escherichia coli BLi5 competent cells using dTMP as substrate by lactate dehydrogenase, pyruvate kinase and nucleoside diphosphate kinase coupled spectrophotometric method; conditions: for pIC50: read-out: IC50
[2] = test system: Mycobacterium tuberculosis; assay: Antitubercular activity against Mycobacterium tuberculosis H37Ra incubated for 7 to 14 days under 7H9/glucose medium; assay type: functional; conditions: time 7-14 day
[3] = test system: Mycobacterium tuberculosis; assay: Antitubercular activity against Mycobacterium tuberculosis H37Rv ATCC 27294 incubated for 7 to 14 days under 7H9/glucose medium; assay type: functional; conditions: time 7-14 day
[4] = Cytotoxicity against human MRC5 cells measured after 24 hrs by neutral red uptake assay; assay type: cell-based
[5] = test system: Mycobacterium tuberculosis; assay: Antitubercular activity against Mycobacterium tuberculosis H37Rv ATCC 27294 incubated for 7 to 14 days under GAST (Fe(-)) medium; assay type: functional; conditions: time 7-14 day
[6] = test system: Mycobacterium tuberculosis; assay: Antitubercular activity against Mycobacterium tuberculosis H37Rv ATCC 27294 incubated for 7 to 14 days under GAST (Fe(+)) medium; assay type: functional; conditions: time 7-14 day
[7] = Stability of compound in pH 6.6 ammonium bicarbonate-formic acid buffer assessed as parent compound remaining measured after 24 hrs by LC-MS analysis; assay type: physicochemical; conditions: read-out: Stabilty
[8] = Stability of compound in pH 6.6 ammonium bicarbonate-formic acid buffer assessed as hydrolysis measured after 24 hrs by LC-MS analysis; assay type: physicochemical; conditions: pH 6.6, 24 h
[9] = Stability of compound in pH 6.6 ammonium bicarbonate-formic acid buffer assessed as degradation measured up to 6 hrs by LC-MS analysis; assay type: physicochemical; conditions: read-out: Drug degradation

Structure (SMILES)	pIC50 [1]	MIC99 [2] [µM]	MIC99 [3] [µM]	CC50 at 24 h [4] [µM]	MIC99 [5] [µM]	MIC99 [6] [µM]	remaining at 24 h [7] [%]	Stabilty [8]	degraded at 6 h [9] [%]	IC50 [1]
Cc1cn(C2CCN(Cc3ccc(Oc4ccccc4)cc3)CC2)c(=O)[nH]c1=O	4.54	> 64	–	–	–	–	–	–	–	–
Cc1cn(C2CCN(Cc3cc(Oc4ccc(C(=O)O)c(O)c4)c4ccccc4n3)CC2)c(=O)[nH]c1=O	5.89	–	> 100	> 64	≥ 100	100 (≈ 50.3 µg/mL)	–	–	–	–
CCc1nc2ccc(Cl)cn2c1C(=O)NCc1ccc(N2CCC(n3cc(C)c(=O)[nH]c3=O)CC2)cc1	4.33	–	4.7 (≈ 2.45 µg/mL)	> 64	–	2.3 (≈ 1.2 µg/mL)	–	–	–	–
Cc1cn(C2CCN(Cc3ccc4cccc(O)c4n3)CC2)c(=O)[nH]c1=O	4.64	–	75 (≈ 27.5 µg/mL)	54	> 100	> 100	–	–	–	–
Cc1cn(C2CCN(Cc3cc(OCCOC(=O)c4ccc(O)c(O)c4)c4ccccc4n3)CC2)c(=O)[nH]c1=O	6.85	–	≥ 100	6.39	> 100	> 100	–	–	–	–
Cc1cn(C2CCN(Cc3ccc(CNC(=O)c4cc([N+](=O)[O-])cc([N+](=O)[O-])c4)cc3)CC2)c(=O)[nH]c1=O	4.32	–	9.4 (≈ 4.91 µg/mL)	> 64	6.25 (≈ 3.27 µg/mL)	9.4 (≈ 4.91 µg/mL)	–	–	–	–
Cc1cn(C2CCN(Cc3cc(Oc4ccc(OC(=O)c5ccc(O)c(O)c5)cc4)c4ccccc4n3)CC2)c(=O)[nH]c1=O	6.74	–	> 50	–	–	37 (≈ 22 µg/mL)	> 70	Stable	< 10	–
Cc1cn(C2CCN(Cc3cc(Oc4ccc(C(=O)NO)cc4)c4ccccc4n3)CC2)c(=O)[nH]c1=O	6.00	–	> 50	32.2	–	50 (≈ 25.1 µg/mL)	–	–	–	–
CCc1nc2ccc(Cl)cn2c1C(=O)N1CCC(n2cc(C)c(=O)[nH]c2=O)CC1	3.06	–	> 100	> 64	> 100	> 100	–	–	–	–
Cc1cn(C2CCN(Cc3cc(Oc4ccc(/C=N/NC(=S)S)c(O)c4)c4ccccc4n3)CC2)c(=O)[nH]c1=O	6.51	–	> 100	1.45	25 (≈ 14.4 µg/mL)	100 (≈ 57.7 µg/mL)	> 70	–	< 10	–
Cc1cn(C2CCN(Cc3cc(NCCOC(=O)c4ccc(O)c(O)c4)c4ccccc4n3)CC2)c(=O)[nH]c1=O	6.62	–	> 100	> 64	100 (≈ 54.6 µg/mL)	> 100	> 70	–	–	–
Cc1cn(C2CCN(Cc3cc(Oc4ccc(O)cc4)c4ccccc4n3)CC2)c(=O)[nH]c1=O	6.08	–	≥ 100	> 64	≥ 100	> 100	–	–	–	–
Cc1cn(C2CCN(Cc3cc(=O)c4ccccc4[nH]3)CC2)c(=O)[nH]c1=O	5.11	–	> 100	> 64	> 100	> 100	–	–	–	–
Cc1cn(C2CCN(c3ccc(CNC(=O)c4ccc([N+](=O)[O-])cc4[N+](=O)[O-])cc3)CC2)c(=O)[nH]c1=O	–	–	9.4 (≈ 4.78 µg/mL)	> 64	1.2 (≈ 0.61 µg/mL)	0.78 (≈ 0.397 µg/mL)	–	–	–	Nd(Unstable)
Cc1cn(C2CCN(Cc3cccc(-c4ccccn4)n3)CC2)c(=O)[nH]c1=O	4.47	–	12.5 (≈ 4.72 µg/mL)	> 64	> 100	> 100	–	–	–	–
Cc1cn(C2CCN(Cc3cc(OCCO)c4ccccc4n3)CC2)c(=O)[nH]c1=O	5.62	–	> 100	> 64	> 100	> 100	–	–	–	–
Cc1cn(C2CCN(Cc3cc(NCCO)c4ccccc4n3)CC2)c(=O)[nH]c1=O	6.28	–	> 100	> 64	> 100	> 100	–	–	–	–
NNC(=O)c1ccncc1 [ISONIAZID]	–	–	0.15 (≈ 0.0206 µg/mL)	–	0.15 (≈ 0.0206 µg/mL)	0.15 (≈ 0.0206 µg/mL)	–	–	–	–
